Laboratory results: ChEMBL document CHEMBL5260852, “Long-Acting Tumor-Activated Prodrug of a TGFβR Inhibitor” (J Med Chem, 2021)
One block for each molecule: values may come before it. Numbered stars: 1 amine (or outer) side, 2 acyl side, 3 side chain; on linkers, the order of the positions; unused ones are H or OH. Square brackets hold non-standard residues; d marks the D form. Peptide text beside a SMILES is read from it. * marks the point of attachment. X1 = N#Cc1cnc2ccc(-c3c(-c4ccc(F)c(Cl)c4)ncn3CCOCN*)nn12; C18 diacid = O=C(O)CCCCCCCCCCCCCCCCC(=O)*; γGlu = O=C(O)[C@H](CCC(=O)[*:2])N[*:1]; PABC = O=C(OCc1ccc(N[*:1])cc1)[*:2]; AEEA = NCCOCCOCC(=O)O

How the values were obtained:
[1] = Stability in rat plasma assessed as parent compound remaining after 24 hrs by HPLC-MS analysis; assay type: ADME, cell-free; settings: read-out: Stability
[2] = Drug concentration in C57BL/6 mouse plasma at 6 mg/kg,iv and measured after 24 hrs by LC-MS/MS analysis; assay type: ADME, organism-based
[3] = Stability in mouse plasma assessed as parent compound remaining after 24 hrs by HPLC-MS analysis; assay type: ADME, cell-free; settings: read-out: Stability
[4] = Tmax in C57BL/6 mouse blood xenografted mouse MC38 cells at 1.88 mg/kg,iv and measured after 72 hrs by LC-MS/MS analysis; assay type: ADME, organism-based, MC-38
[5] = Cmax in C57BL/6 mouse blood xenografted mouse MC38 cells at 1.88 mg/kg,iv and measured after 72 hrs by LC-MS/MS analysis; assay type: ADME, organism-based, MC-38; design: time 72 hrs, dose 1.88 mg/kg, route iv
[6] = AUC (0 to 24 hrs) in rat at 3 mg/kg,iv for 3 months; assay type: ADME, organism-based; design: time 3 months, dose 3 mg/kg, route iv; settings: in vivo
[7] = Tmax in C57BL/6 mouse tumor xenografted mouse MC38 cells at 1.88 mg/kg,iv and measured after 72 hrs by LC-MS/MS analysis; assay type: ADME, organism-based, Neoplasm, MC-38
[8] = Cmax in C57BL/6 mouse xenografted with mouse MC38 cells at 3.75 mg/kg,iv and measured after 4 weeks by LC-MS/MS analysis; assay type: ADME, organism-based, MC-38; design: dose 3.75 mg/kg, time 4 weeks, route iv; settings: in vivo
[9] = Ratio of AUC in tumor to heart in C57BL/6 mouse xenografted mouse MC38 cells at 1.88 mg/kg,iv and measured after 72 hrs by LC-MS/MS analysis; assay type: ADME, organism-based; settings: in vivo
[10] = Cmax in C57BL/6 mouse tumor xenografted mouse MC38 cells at 1.88 mg/kg,iv and measured after 72 hrs by LC-MS/MS analysis; assay type: ADME, organism-based, Neoplasm, MC-38; design: dose 1.88 mg/kg, time 72 hrs, route iv
[11] = Ratio of AUC in heart to blood in C57BL/6 mouse xenografted mouse MC38 cells at 1.88 mg/kg,iv and measured after 72 hrs by LC-MS/MS analysis; assay type: ADME, organism-based; settings: read-out: Ratio AUC
[12] = AUC (0 to 72 hrs) in C57BL/6 mouse heart xenografted mouse MC38 cells at 1.88 mg/kg,iv and measured after 72 hrs by LC-MS/MS analysis; assay type: ADME, organism-based, MC-38; design: time 72 hrs, dose 1.88 mg/kg, route iv
[13] = Tmax in C57BL/6 mouse heart xenografted mouse MC38 cells at 1.88 mg/kg,iv and measured after 72 hrs by LC-MS/MS analysis; assay type: ADME, organism-based, MC-38
[14] = Ratio of AUC in tumor to blood in C57BL/6 mouse xenografted mouse MC38 cells at 1.88 mg/kg,iv and measured after 72 hrs by LC-MS/MS analysis; assay type: ADME, organism-based; settings: read-out: Ratio AUC
[15] = AUC (0 to 72 hrs) in C57BL/6 mouse tumor xenografted mouse MC38 cells at 1.88 mg/kg,iv and measured after 72 hrs by LC-MS/MS analysis; assay type: ADME, organism-based, Neoplasm, MC-38; design: dose 1.88 mg/kg, time 72 hrs, route iv
[16] = Cmax in C57BL/6 mouse heart xenografted mouse MC38 cells at 1.88 mg/kg,iv and measured after 72 hrs by LC-MS/MS analysis; assay type: ADME, organism-based, MC-38; design: time 72 hrs, dose 1.88 mg/kg, route iv
[17] = AUC (0 to 72 hrs) in C57BL/6 mouse xenografted with mouse MC38 cells at 3.75 mg/kg,iv and measured after 4 weeks by LC-MS/MS analysis; assay type: ADME, organism-based, MC-38; design: dose 3.75 mg/kg, time 4 weeks, route iv; settings: in vivo
[18] = AUC (0 to 72 hrs) in C57BL/6 mouse blood xenografted mouse MC38 cells at 1.88 mg/kg,iv and measured after 72 hrs by LC-MS/MS analysis; assay type: ADME, organism-based, MC-38; design: dose 1.88 mg/kg, time 72 hrs, route iv
[19] = AUC in C57BL/6 mouse plasma at 6 mg/kg,iv and measured upto 24 hrs by LC-MS/MS analysis; assay type: ADME, organism-based; design: dose 6 mg/kg, time < 24 hrs, route iv

remaining at 24 h [1]: 77%
concentration at 24 h [2]: > 1 µM
remaining at 24 h [3]: 84%
SMILES: CC(C)C[C@H](NC(=O)CC[C@H](NC(=O)CCCCCCCCCCCCCCCCC(=O)O)C(=O)O)C(=O)N[C@@H](CO)C(=O)NCC(=O)N[C@@H](CCCCN)C(=O)Nc1ccc(COC(=O)NCOCCn2cnc(-c3ccc(F)c(Cl)c3)c2-c2ccc3ncc(C#N)n3n2)cc1 ({C18 diacid-γGlu}-LSGK[PABC]-X1)

Tmax [4]: 1 h
Cmax [5]: 1400 nM
AUC(0-t) at 2190 h [6]: 27 µM·h
Tmax [7]: 1 h
Cmax [8]: 1500 nM
Ratio AUC [9]: 0.61
Cmax [10]: 1500 nM
Kp at 72 h [11]: 1.7
AUC(0-t) at 72 h [12]: 10 µM·h
Tmax [13]: 1 h
Kp at 72 h [14]: 1.1
AUC(0-t) at 72 h [15]: 6.1 µM·h
Cmax [16]: 2500 nM
AUC(0-t) at 672 h [17]: 39 µM·h
AUC(0-t) at 72 h [18]: 5.8 µM·h
SMILES: N#Cc1cnc2ccc(-c3c(-c4ccc(F)c(Cl)c4)ncn3CCO)nn12

remaining at 24 h [1]: 81%
concentration at 24 h [2]: > 1 µM
remaining at 24 h [3]: 79%
SMILES: CC(C)C[C@H](NC(=O)COCCOCCNC(=O)CC[C@H](NC(=O)CCCCCCCCCCCCCCCCC(=O)O)C(=O)O)C(=O)N[C@@H](CO)C(=O)NCC(=O)N[C@@H](CCCCN)C(=O)Nc1ccc(COC(=O)NCOCCn2cnc(-c3ccc(F)c(Cl)c3)c2-c2ccc3ncc(C#N)n3n2)cc1 ({C18 diacid-γGlu-AEEA}-LSGK[PABC]-X1)

remaining at 24 h [1]: 76%
concentration at 24 h [2]: 5.2 µM
remaining at 24 h [3]: 91%
AUC at 24 h [19]: 270 µM·h
SMILES: CC(C)C[C@H](NC(=O)COCCOCCNC(=O)COCCOCCNC(=O)COCCOCCNC(=O)CC[C@H](NC(=O)CCCCCCCCCCCCCCCCC(=O)O)C(=O)O)C(=O)N[C@@H](CO)C(=O)NCC(=O)N[C@@H](CCCCN)C(=O)Nc1ccc(COC(=O)NCOCCn2cnc(-c3ccc(F)c(Cl)c3)c2-c2ccc3ncc(C#N)n3n2)cc1 ({C18 diacid-γGlu-AEEA-AEEA-AEEA}-LSGK[PABC]-X1)
